# Source: patent publication US10278942B2 (PELOTON THERAPEUTICS, INC., priority 2015, dated 2019)
# Molecular target: T1, HIF-2α HIS TAG-PASB Domain (Homo sapiens, UniProt Q99814)
# T1 construct: 100 nM HIF-2α HIS TAG-PASB Domain
# Test: HIF-2α Scintillation Proximity Assay (SPA)
# Format: binding
# Settings: Scintillation Proximity Assay IC50 (nM)
# Protocol: The total assay volume was about 100 μL in the following configuration: 2 μL compound in 100% DMSO, 88 μL buffer with protein and probe and 10 μL of SPA beads. […] The percent inhibition was determined and IC50 values were calculated using the Dotmatics system based on the following equation: % inhibition=[(high control−sample)/(high control−low control)]×100.
# T1 sequence (Q99814 240-350 limits assumed): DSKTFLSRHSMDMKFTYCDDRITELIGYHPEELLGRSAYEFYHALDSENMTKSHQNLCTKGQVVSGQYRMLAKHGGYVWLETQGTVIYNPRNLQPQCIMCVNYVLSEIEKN
row,SMILES,IC50
1,N#Cc1cncc(Oc2ccc3c(c2C(F)F)C(O)C(F)(F)S3(=O)=O)c1 (stereo not drawn) [Compound 383],50 to 249 nM
2,NC(=O)c1cc(S(=O)(=O)C(F)(F)F)ccc1Oc1cc(F)cc(Cl)c1 [Compound 125],> 1000 nM

# Same assay, conditions: read-out: Scintillation Proximity Assay IC50
row,SMILES,IC50
1,CN(Cc1cccs1)c1ccc(S(=O)(=O)C(F)F)c2c1CC(F)(F)[C@H]2O [Compound 530],> 1000 nM
2,CS(=O)(=O)c1ccc(O[C@H]2CC[C@H](C#N)CC2)c2c1[C@H](O)C(F)(F)[C@@H]2F [Compound 757],> 1000 nM
3,N#Cc1ccc(F)c2c1CC(F)(F)C2O (stereo not drawn) [Compound 519],> 1000 nM
4,NC(=O)Cc1ccc(S(=O)(=O)C(F)(F)F)c2c1CC[C@H]2O [Compound 525],> 1000 nM
5,COc1ccc(-c2cn[nH]c2)c2c1CC(F)(F)C2O (stereo not drawn) [Compound 680],> 1000 nM
6,CCCOc1ccc(S(=O)(=O)C(F)(F)F)c2c1CCC2O (stereo not drawn) [Compound 583],> 1000 nM
7,CS(=O)(=O)N1CC(Oc2ccc(S(=O)(=O)C(F)(F)F)c3c2CC(F)(F)[C@H]3O)C1 [Compound 793],> 1000 nM
8,O=S(=O)(c1ccc(OC2CCOC2)c2c1C(O)CC2)C(F)(F)F (stereo not drawn) [Compound 596],> 1000 nM
9,CS(=O)(=O)N=S(=O)(CF)c1ccc(Oc2cc(F)cc(C#N)c2)c2c1[C@H](O)C(F)(F)C2 (stereo partly drawn) [Compound 284],> 1000 nM
10,OC1c2c(Br)ccc(OCC(F)F)c2CC1(F)F (stereo not drawn) [Compound 687],> 1000 nM
11,CC(Oc1ccc(S(=O)(=O)C(F)(F)F)c2c1CC(F)(F)C2O)C(=O)N(C)C (stereo not drawn) [Compound 647],> 1000 nM
12,O/N=C1/c2c(C(F)(F)F)ccc(OCCCF)c2[C@@H](F)C1(F)F [Compound 700],50 to 249 nM
13,CC1(C)CC[C@H](O)[C@H](c2ccc(S(=O)(=O)C(F)(F)F)c3c2CC(F)(F)[C@H]3O)C1 [Compound 548],> 1000 nM
14,NC(=O)Cc1ccc(S(=O)(=O)C(F)(F)F)c2c1CC(F)(F)C2O (stereo not drawn) [Compound 526],> 1000 nM
15,O[C@H]1c2c(OCC(F)F)ccc(C(F)(F)F)c2[C@H](F)C1(F)F [Compound 690],> 1000 nM
16,O=S(=O)(c1ccc(-c2cn[nH]c2)c2c1[C@H](O)C(F)(F)C2)C(F)(F)F [Compound 560],> 1000 nM
17,CNC(=O)COc1ccc(S(=O)(=O)C(F)(F)F)c2c1CC(F)(F)C2O (stereo not drawn) [Compound 638],> 1000 nM
18,N#Cc1cncc(Oc2ccc(S(N)(=O)=O)c3c2[C@@H](F)C(F)(F)[C@H]3O)c1 [Compound 340],< 50 nM
19,"O=S(=O)(c1ccc(CCCO)c2c1C(O)CC2)C(F)(F)F (stereo not drawn) [Compound 522, 4-(3-hydroxypropyl)-7-((trifluoromethyl)sulfonyl)-2,3-dihydro-1H-inden-1-ol]",250 to 1000 nM
20,CS(=O)(=O)c1ccc(Oc2cncc(C#N)c2)c2c1[C@H](O)C(F)(F)[C@H]2F [Compound 343],> 1000 nM
21,N#Cc1cc(Oc2ccc(S(=O)(=O)C(F)(F)F)c3c2CCC3O)ccc1F (stereo not drawn) [Compound 216],> 1000 nM
22,NCC1(O)CCc2c(OCC(F)F)ccc(C(F)(F)F)c21 (stereo not drawn) [Compound 705],> 1000 nM
23,O[C@H]1c2c(C(F)(F)F)ccc(OC3CC(F)(F)C3)c2CC1(F)F [Compound 587],< 50 nM
24,COC(C)COc1ccc(S(=O)(=O)C(F)(F)F)c2c1CCC2O (stereo not drawn) [Compound 625],> 1000 nM
25,O=S(=O)(c1ccc(O[C@@H]2CCCc3cn[nH]c32)c2c1[C@H](O)C(F)(F)C2)C(F)(F)F [Compound 729],> 1000 nM
26,OC1c2c(I)cc(I)c(OCC(F)F)c2CC1(F)F (stereo not drawn) [Compound 666],> 1000 nM
27,CS(=O)(=O)c1ccc(Nc2ccc(F)cc2)c2c1C(O)CC2 (stereo not drawn) [Compound 497],> 1000 nM
28,O=S(=O)(c1ccc(CO)c2c1[C@H](O)C(F)(F)C2)C(F)(F)F [Compound 537],> 1000 nM

# Further lines, results first:
row,IC50,SMILES
1,250 to 1000 nM,O=C1c2c(S(=O)(=O)C(F)F)ccc(Oc3ccc(F)c(Br)c3)c2CC1(F)F [Compound 193]
2,> 1000 nM,N#Cc1c(Oc2cc(F)cc(F)c2)ccc2c1C(O)(C(F)(F)F)CS2(=O)=O (stereo not drawn) [Compound 448]
3,> 1000 nM,NC1c2c(ccc(Oc3cc(F)cc(F)c3)c2C(F)F)S(=O)(=O)C1F (stereo not drawn) [Compound 366]
4,> 1000 nM,N#Cc1cc(F)cc(Oc2ccc(S(=O)(=O)C(F)(F)F)c3c2CC(F)C3N)c1 (stereo not drawn) [Compound 268]
5,> 1000 nM,CC1(O)c2c(S(=O)(=O)C(F)F)ccc(Oc3cc(F)cc(C#N)c3)c2CC1(F)F (stereo not drawn) [Compound 13]
6,250 to 1000 nM,O=S(=O)(c1ccc(Oc2cc(F)cc(F)c2)c2c1C(CO)CC2)C(F)F (stereo not drawn) [Compound 24]
7,> 1000 nM,O=S(=O)(c1ccc(Oc2cc(F)cc(CO)c2)c(Br)c1)C(F)(F)F [Compound 177]
8,250 to 1000 nM,CN=S(=O)(c1ccc(Oc2cc(F)cc(Cl)c2)c(Br)c1)C(F)F (stereo not drawn) [Compound 70]
9,> 1000 nM,N#Cc1cc(F)cc(Oc2ccc(S(=O)(=O)C3CCC3)c3c2CCC3O)c1 (stereo not drawn) [Compound 208]
10,> 1000 nM,Cc1c(Cl)cccc1Oc1ccc(S(=O)(=O)C(F)(F)F)cc1Br [Compound 171]
11,> 1000 nM,Cc1cc(C)cc(Oc2ccc(S(=O)(=O)C(F)(F)F)cc2Br)c1 [Compound 173]
12,> 1000 nM,N=S(=O)(c1ccc(Oc2cc(F)cc(Cl)c2)c(Br)c1)C(F)F (stereo not drawn) [Compound 69]
13,50 to 249 nM,N=S1(=O)c2ccc(Oc3cc(F)cc(F)c3)c(C(F)F)c2C(O)C1(F)F (stereo not drawn) [Compound 399]
14,> 1000 nM,CC(=O)c1c(S(=O)(=O)C(F)(F)F)ccc(Oc2cc(F)cc(C#N)c2)c1C#N [Compound 79]
15,> 1000 nM,N=S1(=O)CC(O)c2c1ccc(Oc1cc(F)cc(F)c1)c2C(F)F (stereo not drawn) [Compound 396]
16,> 1000 nM,N#Cc1c(Oc2cc(F)cc(Cl)c2)ccc(S(=O)(=O)C(F)(F)F)c1Cl [Compound 28]
17,> 1000 nM,O=S(=O)(c1ccc(Oc2ccc(F)cc2F)c(Br)c1)C(F)(F)F [Compound 175]
18,> 1000 nM,C=CCC1(O)c2c(S(=O)(=O)C(F)F)ccc(Oc3cc(F)cc(F)c3)c2CC1(F)F (stereo not drawn) [Compound 12]
19,> 1000 nM,Cc1c(Oc2cc(F)cc(C#N)c2)ccc(S(=O)(=O)C(F)(F)F)c1C#CCO [Compound 142]
20,> 1000 nM,CS(=O)(=NC#N)c1ccc(Oc2cc(F)cc(C#N)c2)c2c1C(O)CC2 (stereo not drawn) [Compound 68]
21,> 1000 nM,CS(=N)(=O)c1ccc(Oc2cc(F)cc(Cl)c2)c(C#N)c1Cl (stereo not drawn) [Compound 180]
22,> 1000 nM,N#Cc1cc(F)cc(Oc2ccc3c(c2C(F)F)C(=N)C(F)S3(=O)=O)c1 (stereo not drawn) [Compound 373]
23,> 1000 nM,COC(=O)c1c([S+]([O-])C(F)F)ccc(Oc2cc(F)cc(Cl)c2)c1Br (stereo not drawn) [Compound 82]
24,> 1000 nM,O=S1(=O)C[C@H](O)c2c1ccc(Oc1cc(F)cc(F)c1)c2Br [Compound 413]
25,> 1000 nM,Cc1cc(C#N)cc(Oc2ccc3c(c2C(F)F)C(=O)C(F)(F)S3(=O)=O)c1 [Compound 391]
26,< 50 nM,CS(=O)(=O)c1ccc(Oc2cncc(Cl)c2)c2c1[C@H](O)C(F)(F)[C@@H]2F [Compound 331]
27,50 to 249 nM,N#Cc1cc(F)cc(Oc2ccc3c(c2C(F)F)C(N)C(F)(F)S3(=O)=O)c1 (stereo not drawn) [Compound 387]
28,> 1000 nM,O=S(=O)(c1ccc(Oc2cc(F)cc(Cl)c2)c(Cl)c1CNCC(F)(F)F)C(F)F [Compound 47]
29,250 to 1000 nM,N#Cc1c(S(=O)(=O)C(F)F)ccc(Oc2cc(F)cc(Cl)c2)c1Br [Compound 76]
30,> 1000 nM,CC1(C)C(O)c2c(ccc(Oc3cc(F)cc(Cl)c3)c2C#N)S1(=O)=O (stereo not drawn) [Compound 408]
